Values after ≈ are worked out from the molar mass of the structure shown. Like-named read-outs stand apart in the source and are kept apart here.
Columns and labels:
Assay type in all cases: cell-based
[1] = test system: Escherichia Coli NIHJ JC-2; experiment: Bactericidal test (MIC), Escherichia Coli NIHJ JC-2; conditions: NIHJJC2; (5) Escherichia Coli NIHJ JC-2
From the text: (§1) Results of bactericidal tests (MIC, r/ml) on the penicillin derivatives of this invention prepared in the above examples are shown in the following table.

[2] = test system: Pseudomonas aeruginosa Tid-53; experiment: Bactericidal test (MIC), Pseudomonas aeruginosa Tid-53; conditions: TID53; (14) Pseudomonas aeruginosa Tid-53
From the text: as §1

[3] = test system: Pseudomonas aeruginosa IFO-3080; experiment: Bactericidal test (MIC), Pseudomonas aeruginosa IFO-3080; conditions: IFO3080
From the text: as §1

[4] = test system: Staphylococcus aureus 209-p; experiment: Bactericidal test (MIC), Staphylococcus aureus 209-p; conditions: (1) Staphylococcus aureus 209-p
From the text: as §1

Enterobactor cloacae 147 = experiment: Bactericidal test (MIC), Enterobactor cloacae 147; conditions: (7) Enterobactor cloacae 147
From the text: as §1

Serratia G-18 = experiment: Bactericidal test (MIC), Serratia G-18; conditions: G18
From the text: as §1

[5] = test system: Pseudomonas aeruginosa GN-315; experiment: Bactericidal test (MIC), Pseudomonas aeruginosa GN-315; conditions: GN315; (15) Pseudomonas aeruginosa GN-315
From the text: as §1

[6] = test system: Salmonella typhimurium G-20; experiment: Bactericidal test (MIC), Salmonella typhimurium G-20; conditions: Salmonella enterica; (4) Salmonella typhimurium G-20
From the text: as §1

Morganella var. G-2 = experiment: Bactericidal test (MIC), Morganella var. G-2; conditions: VAR.G2
From the text: as §1

[7] = test system: Klebsiella neumoniae ATCC10031; experiment: Bactericidal test (MIC), Klebsiella neumoniae ATCC10031
From the text: as §1

[8] = test system: Staphylococcus aureus 1248; experiment: Bactericidal test (MIC), Staphylococcus aureus 1248
From the text: as §1

[9] = test system: Pseudomonas aeruginosa 0-37; experiment: Bactericidal test (MIC), Pseudomonas aeruginosa 0-37; conditions: 037; (13) Pseudomonas aeruginosa 0-37
From the text: as §1

[10] = test system: Pseudomonas aeruginosa 130; experiment: Bactericidal test (MIC), Pseudomonas aeruginosa 130; conditions: (16) Pseudomonas aeruginosa 130
From the text: as §1

Rettgerella var. Tid-21 = experiment: Bactericidal test (MIC), Rettgerella var. Tid-21
From the text: as §1

Bacillus subtilis = experiment: Bactericidal test (MIC), Bacillus subtilis; conditions: (3) Bacillus subtilis
From the text: as §1

[11] = test system: Enterobacter cloacae IF012937; experiment: Bactericidal test (MIC), Enterobacter cloacae IF012937; conditions: (8) Enterobacter cloacae IF012937
From the text: as §1

[12] = (12) Pseudomonas aeruginosa IFO-3080, read-out: MIC
[13] = (11) Serratia G-18, read-out: MIC
[14] = (2) Staphylococcus aureus 1248, read-out: MIC
[15] = (9) Morganella var. G-2, read-out: MIC
[16] = (6) Klebsiella neumoniae ATCC10031, read-out: MIC
[17] = (10) Rettgerella var. Tid-21, read-out: MIC

Structure (SMILES)	MIC [1] [µg/mL]	MIC [2] [µg/mL]	MIC [3, 12] [µg/mL]	MIC [4] [µg/mL]	MIC (Enterobactor cloacae 147) [µg/mL]	MIC (Serratia G-18; [13]) [µg/mL]	MIC [5] [µg/mL]	MIC [6] [µg/mL]	MIC [8, 14] [µg/mL]	MIC [9] [µg/mL]	MIC [10] [µg/mL]	MIC (Bacillus subtilis) [µg/mL]	MIC (Morganella var. G-2; [15]) [µg/mL]	MIC [7, 16] [µg/mL]	MIC (Rettgerella var. Tid-21; [17]) [µg/mL]	MIC [11] [µg/mL]	other results
CC1(C)S[C@@H]2[C@H](NC(=O)[C@H](N)c3ccccc3)C(=O)N2[C@H]1C(=O)O [Ampicillin, ampicillin, reference compound]	< 0.8	> 400	200 (≈ 572 µM)	< 0.8	400 (≈ 1140 µM)	25 (≈ 71.5 µM)	> 400	< 0.8	< 0.8	> 400	> 400	< 0.8	–	–	–	–	MIC (Morganella var. G-2; Morganella): 12.5 µg/mL (≈ 35.8 µM); MIC ([7]; Klebsiella, ATCC10031): 12.5 µg/mL (≈ 35.8 µM); MIC (Rettgerella var. Tid-21): 6.25 µg/mL (≈ 17.9 µM)
CC1(C)S[C@@H]2[C@H](NC(=O)C(C(=O)O)c3ccccc3)C(=O)N2[C@H]1C(=O)O (stereo partly drawn) [Carbenicillin, carbenicillin, reference compound]	< 0.8	200 (≈ 529 µM)	–	< 0.8	200 (≈ 529 µM)	–	100 (≈ 264 µM)	< 0.8	–	> 400	25 (≈ 66.1 µM)	< 0.8	1.56 (≈ 4.12 µM)	50 (≈ 132 µM)	25 (≈ 66.1 µM)	–	MIC ([3]; Pseudomonas aeruginosa): 12.5 µg/mL (≈ 33 µM); MIC (Serratia G-18; Serratia): 6.25 µg/mL (≈ 16.5 µM); MIC ([8]; Staphylococcus aureus, 1248): 3.13 µg/mL (≈ 8.27 µM)
CC1(C)S[C@@H]2[C@H](NC(=O)[C@H](NC(=O)c3cc4cc(Br)cc(Br)c4oc3=O)c3ccccc3)C(=O)N2[C@H]1C(=O)O [Example 4, D(-)-α-(6,8-Dibromocoumarin-3-carbonamido)benzylpenicillin]	< 0.4	200 (≈ 294 µM)	50 (≈ 73.6 µM)	1.56 (≈ 2.3 µM)	50 (≈ 73.6 µM)	100 (≈ 147 µM)	200 (≈ 294 µM)	3.13 (≈ 4.61 µM)	50 (≈ 73.6 µM)	200 (≈ 294 µM)	50 (≈ 73.6 µM)	1.56 (≈ 2.3 µM)	25 (≈ 36.8 µM)	3.13 (≈ 4.61 µM)	100 (≈ 147 µM)	200 (≈ 294 µM)	–
Cc1ccc2oc(=O)c(C(=O)N[C@@H](C(=O)N[C@@H]3C(=O)N4[C@@H]3SC(C)(C)[C@@H]4C(=O)O)c3ccccc3)c(C)c2c1 [Example 5, D(-)-α-(4,6-Dimethylcoumarin-3-carbonamido)benzylpenicillin]	< 0.4	50 (≈ 91 µM)	12.5 (≈ 22.7 µM)	< 0.4	100 (≈ 182 µM)	50 (≈ 91 µM)	50 (≈ 91 µM)	< 0.4	1.56 (≈ 2.84 µM)	200 (≈ 364 µM)	12.5 (≈ 22.7 µM)	< 0.4	25 (≈ 45.5 µM)	0.8 (≈ 1.46 µM)	25 (≈ 45.5 µM)	50 (≈ 91 µM)	–
COc1ccc2oc(=O)c(C(=O)N[C@@H](C(=O)N[C@@H]3C(=O)N4[C@@H]3SC(C)(C)[C@@H]4C(=O)O)c3ccccc3)cc2c1 [Example 7, D(-)-α-(6-Methoxycoumarin-3-carbonamido)benzylpenicillin]	< 0.4	3.13 (≈ 5.67 µM)	1.56 (≈ 2.83 µM)	< 0.4	3.13 (≈ 5.67 µM)	12.5 (≈ 22.7 µM)	3.13 (≈ 5.67 µM)	< 0.4	1.56 (≈ 2.83 µM)	25 (≈ 45.3 µM)	1.56 (≈ 2.83 µM)	< 0.4	6.25 (≈ 11.3 µM)	< 0.4	6.25 (≈ 11.3 µM)	3.13 (≈ 5.67 µM)	–
COc1ccc2cc(C(=O)N[C@@H](C(=O)N[C@@H]3C(=O)N4[C@@H]3SC(C)(C)[C@@H]4C(=O)O)c3ccccc3)c(=O)oc2c1 [Example 8, D(-)-α-(7-Methoxycoumarin-3-carbonamido)benzylpenicillin]	< 0.4	3.13 (≈ 5.67 µM)	1.56 (≈ 2.83 µM)	< 0.4	1.56 (≈ 2.83 µM)	12.5 (≈ 22.7 µM)	3.13 (≈ 5.67 µM)	< 0.4	< 0.4	25 (≈ 45.3 µM)	3.13 (≈ 5.67 µM)	< 0.4	3.13 (≈ 5.67 µM)	< 0.4	6.25 (≈ 11.3 µM)	6.25 (≈ 11.3 µM)	–
CC1(C)S[C@@H]2[C@H](NC(=O)[C@H](NC(=O)c3cc4cc(O)ccc4oc3=O)c3ccccc3)C(=O)N2[C@H]1C(=O)O [Example 10, D(-)-α-(6-Hydroxycoumarin-3-carbonamido)benzylpenicillin]	< 0.4	6.25 (≈ 11.6 µM)	1.56 (≈ 2.9 µM)	< 0.4	3.13 (≈ 5.82 µM)	12.5 (≈ 23.3 µM)	3.13 (≈ 5.82 µM)	< 0.4	1.56 (≈ 2.9 µM)	25 (≈ 46.5 µM)	3.13 (≈ 5.82 µM)	< 0.4	6.25 (≈ 11.6 µM)	0.8 (≈ 1.49 µM)	6.25 (≈ 11.6 µM)	100 (≈ 186 µM)	–
CC1(C)S[C@@H]2[C@H](NC(=O)[C@H](NC(=O)c3cc4ccc(O)cc4oc3=O)c3ccccc3)C(=O)N2[C@H]1C(=O)O [Example 11, D(-)-α-(7-Hydroxycoumarin-3-carbonamido)benzylpenicillin]	< 0.4	25 (≈ 46.5 µM)	3.13 (≈ 5.82 µM)	< 0.4	12.5 (≈ 23.3 µM)	200 (≈ 372 µM)	12.5 (≈ 23.3 µM)	< 0.4	6.25 (≈ 11.6 µM)	100 (≈ 186 µM)	6.25 (≈ 11.6 µM)	< 0.4	50 (≈ 93 µM)	12.5 (≈ 23.3 µM)	25 (≈ 46.5 µM)	12.5 (≈ 23.3 µM)	–
CC(=O)Oc1ccc2cc(C(=O)N[C@@H](C(=O)N[C@@H]3C(=O)N4[C@@H]3SC(C)(C)[C@@H]4C(=O)O)c3ccccc3)c(=O)oc2c1 [Example 12, D(-)-α-(7-Acetoxycoumarin-3-carbonamido)benzylpenicillin]	< 0.4	6.25 (≈ 10.8 µM)	1.56 (≈ 2.69 µM)	< 0.4	12.5 (≈ 21.6 µM)	100 (≈ 173 µM)	6.25 (≈ 10.8 µM)	< 0.4	3.13 (≈ 5.4 µM)	50 (≈ 86.3 µM)	1.56 (≈ 2.69 µM)	< 0.4	25 (≈ 43.1 µM)	12.5 (≈ 21.6 µM)	12.5 (≈ 21.6 µM)	100 (≈ 173 µM)	–
CC(=O)Oc1cccc2cc(C(=O)N[C@@H](C(=O)N[C@@H]3C(=O)N4[C@@H]3SC(C)(C)[C@@H]4C(=O)O)c3ccccc3)c(=O)oc12 [Example 21, D-α-(8-Acetoxycoumarin-3-carbonamido)benzylpenicillin]	< 0.4	12.5 (≈ 21.6 µM)	< 0.4	< 0.4	–	12.5 (≈ 21.6 µM)	3.13 (≈ 5.4 µM)	–	3.13 (≈ 5.4 µM)	50 (≈ 86.3 µM)	0.8 (≈ 1.38 µM)	–	1.56 (≈ 2.69 µM)	0.8 (≈ 1.38 µM)	1.56 (≈ 2.69 µM)	6.25 (≈ 10.8 µM)	–
COc1cc(OC)c2cc(C(=O)N[C@@H](C(=O)N[C@@H]3C(=O)N4[C@@H]3SC(C)(C)[C@@H]4C(=O)O)c3ccccc3)c(=O)oc2c1 [Example 22, D-α-(5,7-Dimethoxycoumarin-3-carbonamido)benzylpenicillin]	< 0.4	6.25 (≈ 10.7 µM)	1.56 (≈ 2.68 µM)	< 0.4	12.5 (≈ 21.5 µM)	100 (≈ 172 µM)	6.25 (≈ 10.7 µM)	–	3.13 (≈ 5.38 µM)	50 (≈ 86 µM)	3.13 (≈ 5.38 µM)	–	50 (≈ 86 µM)	1.56 (≈ 2.68 µM)	25 (≈ 43 µM)	50 (≈ 86 µM)	–
CCOc1ccc2oc(=O)c(C(=O)N[C@@H](C(=O)N[C@@H]3C(=O)N4[C@@H]3SC(C)(C)[C@@H]4C(=O)O)c3ccccc3)cc2c1 [Example 23, D-α-(6-Ethoxycoumarin-3-carbonamido)benzylpenicillin]	< 0.4	3.13 (≈ 5.53 µM)	0.8 (≈ 1.41 µM)	< 0.4	1.56 (≈ 2.76 µM)	25 (≈ 44.2 µM)	3.13 (≈ 5.53 µM)	–	–	12.5 (≈ 22.1 µM)	1.56 (≈ 2.76 µM)	–	3.13 (≈ 5.53 µM)	6.25 (≈ 11.1 µM)	3.13 (≈ 5.53 µM)	6.25 (≈ 11.1 µM)	–
COc1cccc2oc(=O)c(C(=O)N[C@@H](C(=O)N[C@@H]3C(=O)N4[C@@H]3SC(C)(C)[C@@H]4C(=O)O)c3ccccc3)cc12 [Example 24, D-α-(5-Methoxycoumarin-3-carbonamido)benzylpenicillin]	< 0.4	3.13 (≈ 5.67 µM)	0.8 (≈ 1.45 µM)	< 0.4	1.56 (≈ 2.83 µM)	25 (≈ 45.3 µM)	3.13 (≈ 5.67 µM)	–	–	12.5 (≈ 22.7 µM)	1.56 (≈ 2.83 µM)	–	3.13 (≈ 5.67 µM)	–	3.13 (≈ 5.67 µM)	6.25 (≈ 11.3 µM)	–
CC1(C)S[C@@H]2[C@H](NC(=O)[C@H](NC(=O)c3cc4cccc(O)c4oc3=O)c3ccccc3)C(=O)N2[C@H]1C(=O)O [Example 26, D(-)-α-(8-Hydroxycoumarin-3-carbonamido)benzylpenicillin]	< 0.4	6.25 (≈ 11.6 µM)	< 0.4	< 0.4	3.13 (≈ 5.82 µM)	12.5 (≈ 23.3 µM)	1.56 (≈ 2.9 µM)	–	–	50 (≈ 93 µM)	1.56 (≈ 2.9 µM)	< 0.4	1.56 (≈ 2.9 µM)	–	1.56 (≈ 2.9 µM)	12.5 (≈ 23.3 µM)	–
